Assay results: US9732094B2, “Arylquinazolines” (Merck Patent GmbH, priority 2013, dated 2017)
Read-outs that look alike come from different tables or passages of the source.

Columns and labels:
DNA-PK = DNA-PK (Homo sapiens (Human), UniProt P78527); experiment: DNA-PK assay (biochemical), flashplate 33P-ATP kinase assay
In short: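 Radiometric kinase reaction in streptavidin-coated flashplates, stopped with 200 mM EDTA, then 30 min room-temperature incubation and saline washes.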

[1] = target: DNA-PK phosphorylation at serine 2056 (Homo sapiens (Human), UniProt P78527); experiment: DNA-PK phosphorylation at serine 2056 (cellular), bleomycin-treated HCT116 cells, ELISA; assay type: cell-based; conditions: read-out: IC50 pDNA-PK
In short: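 HCT116 cells were treated with 10 μM bleomycin plus test compounds for six hours at 37 °C. Phospho-Ser2056 DNA-PK measured by chemiluminescent ELISA, normalised to total DNA-PKcs signal; DMSO control as blank.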

Kv11.1 (hERG) = Kv11.1 (hERG) (Homo sapiens (Human), UniProt Q12809); experiment: Kv11.1 (hERG) ion channel activity (patch clamp assay), HEK293 cells transfected with hERG gene
Sequence of Kv11.1 (hERG) (Q12809 whole entry): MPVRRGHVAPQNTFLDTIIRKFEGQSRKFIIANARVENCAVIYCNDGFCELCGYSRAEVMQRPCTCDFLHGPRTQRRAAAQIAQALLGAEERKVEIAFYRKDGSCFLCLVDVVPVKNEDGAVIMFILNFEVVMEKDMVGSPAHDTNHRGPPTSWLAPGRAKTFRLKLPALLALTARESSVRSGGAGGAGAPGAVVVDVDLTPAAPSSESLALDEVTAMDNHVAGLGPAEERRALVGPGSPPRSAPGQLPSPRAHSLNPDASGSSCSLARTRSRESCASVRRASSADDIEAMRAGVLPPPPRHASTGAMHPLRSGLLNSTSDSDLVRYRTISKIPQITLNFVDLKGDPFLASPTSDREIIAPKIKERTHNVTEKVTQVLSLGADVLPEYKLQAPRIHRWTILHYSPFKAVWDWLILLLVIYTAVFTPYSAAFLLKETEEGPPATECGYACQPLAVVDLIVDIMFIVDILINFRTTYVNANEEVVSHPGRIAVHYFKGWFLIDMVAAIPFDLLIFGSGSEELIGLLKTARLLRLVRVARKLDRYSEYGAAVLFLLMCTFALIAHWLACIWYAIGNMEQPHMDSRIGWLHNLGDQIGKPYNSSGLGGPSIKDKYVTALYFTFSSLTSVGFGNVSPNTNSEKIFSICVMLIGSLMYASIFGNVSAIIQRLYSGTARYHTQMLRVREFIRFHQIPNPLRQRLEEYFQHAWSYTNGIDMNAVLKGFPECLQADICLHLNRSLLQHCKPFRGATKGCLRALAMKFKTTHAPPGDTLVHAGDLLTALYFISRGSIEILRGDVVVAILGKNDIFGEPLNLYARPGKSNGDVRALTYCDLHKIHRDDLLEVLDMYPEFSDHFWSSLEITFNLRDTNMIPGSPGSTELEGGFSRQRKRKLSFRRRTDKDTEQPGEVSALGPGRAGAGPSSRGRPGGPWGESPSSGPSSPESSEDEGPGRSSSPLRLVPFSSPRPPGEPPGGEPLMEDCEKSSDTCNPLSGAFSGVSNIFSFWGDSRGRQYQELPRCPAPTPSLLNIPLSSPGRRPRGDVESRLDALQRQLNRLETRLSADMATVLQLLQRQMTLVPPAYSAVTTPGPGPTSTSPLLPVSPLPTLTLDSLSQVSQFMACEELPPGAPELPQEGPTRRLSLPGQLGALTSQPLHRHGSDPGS

[2] = cellular, HCT116 cells, 10 μM bleomycin, six hours
[3] = Ki [Kv1.11 hERG], patch clamp, HEK293 transfected with hERG gene
[4] = cellular DNA-PK phosphorylation at serine 2056, HCT116
[5] = Ki [Kv1.11 hERG], hERG patch clamp assay (cells without asterisk)
[6] = read-out: Ki [Kv1.11 hERG], hERG patch clamp assay (cells without asterisk)
[7] = read-out: Ki [Kv1.11 hERG], patch clamp, HEK293 transfected with hERG gene

Compound	IC50 (DNA-PK; biochemical DNA-PK assay)	IC50 [1, 4]	Ki (Kv11.1 (hERG); [5])	further results
Nc1nccnc1C(O)c1cc(-c2ncnc3cc(N4CCOCC4)ccc23)c(F)cc1Cl (stereo not drawn) [Example 117, (3-Amino-pyrazin-2-yl)-[2-chloro-4-fluoro-5-(7-morpholin-4-yl-quinazolin-4-yl)-phenyl]methanol]	–	–	–	IC50 (DNA-PK; enzymatic, 5 μM ATP): 0.003 to 0.007 µM; IC50 [1, 2]: 0.5 to 5 µM; Ki (Kv11.1 (hERG); [3]): 15 to 25 µM
[2H]c1c(N2CCOCC2)cc2ncnc(-c3cc(C(O)c4nccnc4C)ccc3F)c2c1[2H] (stereo not drawn) [Example 226, [3-(5,6-Dideuterio-7-morpholino-quinazolin-4-yl)-4-fluorophenyl]-(3-melhylpyrazin-2-yl)-methanol]	0.003 to 0.007 µM	< 0.5 µM	> 25 µM	–
Cc1nccnc1[C@H](O)c1cc(-c2ncnc3cc(N4CCOCC4)ccc23)c(F)cc1F [Example 84, [2,4-Difluoro-5-(7-morpholin-4-yl-quinazolin-4-yl)-phenyl]-(3-methyl-pyrazin-2-yl)methanol]	–	–	–	IC50 (DNA-PK; enzymatic, 5 μM ATP): 0.003 to 0.007 µM; IC50 [1, 2]: < 0.5 µM; Ki (Kv11.1 (hERG); human, HEK293 cells stably transfected with the hERG gene, Ki [Kv1.11 hERG], patch clamp, HEK293 transfected with hERG gene): 15 to 25 µM
OC(c1cc(F)c(F)c(-c2ncnc3cc(N4CCOCC4)ccc23)c1)c1nccs1 (stereo not drawn) [Example 179, [3,4-Difluoro-5-(7-morpholin-4-yl-quinazolin-4-yl)-phenyl]thiazol-2-yl-methanol]	–	–	–	IC50 (DNA-PK; Table 5): 0.003 to 0.007 µM; IC50 ([1]; Table 5, HCT116 cells): 0.5 to 5 µM; Ki (Kv11.1 (hERG); read-out: Ki [Kv1.11 hERG], Table 5): < 10 µM
OC(c1cccnc1)c1cc(-c2ncnc3cc(N4CCOCC4)ccc23)c(F)cc1F (stereo not drawn) [Example 217, [2,4-Difluoro-5-(7-morpholin-4-ylquinazolin-4-yl)phenyl]pyridin-3-ylmethanol]	–	–	–	IC50 (DNA-PK; Table 7): 0.003 to 0.007 µM; IC50 ([1]; Table 7, HCT116 cells): < 0.5 µM; Ki (Kv11.1 (hERG); read-out: Ki [Kv1.11 hERG], Table 7): > 25 µM
OC(c1cc(-c2ncnc3cc(N4CCOCC4)ccc23)ccc1Cl)c1ncnc2ccsc12 (stereo not drawn) [Example 89, [2-Chloro-5-(7-morpholin-4-yl-quinazolin-4-yl)-phenyl]thieno[3,2-d}-pyrimidin-4-ylmethanol]	–	–	–	IC50 (DNA-PK; enzymatic, 5 μM ATP): 0.003 to 0.007 µM; IC50 [1, 2]: < 0.5 µM; Ki (Kv11.1 (hERG); [3]): 10 to 15 µM
COc1nccnc1[C@@H](O)c1cc(-c2ncnc3cc(N4CCOCC4)ccc23)ccc1Cl [Example 411, (S)-[2-Chloro-5-(7-morpholin-4-yl-quinazolin-4-yl)-phenyl]-(3-methoxy-pyrazin-2-yl)-methanol]	0.003 to 0.007 µM	0.5 to 5 µM	10 to 15 µM	–
CC(C#N)Oc1ccc(C(O)c2cc(-c3ncnc4cc(N5CCOCC5)ccc34)c(F)cc2Cl)nn1 (single isomer, unassigned) [Example 102, 2-(6-{[2-Chloro-4-fluoro-5-(7-morpholin-4-yl-quinazolin-4-yl)-phenyl)hydroxy-methyl}pyridazin-3-yloxy)propionitrile]	–	–	–	IC50 (DNA-PK; enzymatic, 5 μM ATP): < 0.003 µM; IC50 [1, 2]: < 0.5 µM; Ki (Kv11.1 (hERG); [3]): 15 to 25 µM
Cn1cnc2ncnc(C(O)c3cc(-c4ncnc5cc(N6CCOCC6)ccc45)c(F)cc3Cl)c21 (stereo not drawn) [Example 423, [2-Chloro-4-fluoro-5-(7-morpholin-4-yl-quinazolin-4-yl)-phenyl]-(7-methyl-7H-purin-6-yl)-methanol]	0.007 to 0.03 µM	5 to 10 µM	–	Ki (Kv11.1 (hERG); [6]): > 25 µM
COc1cc(Cl)nnc1C(O)c1cc(-c2ncnc3cc(N4CCOCC4)ccc23)c(F)cc1Cl (stereo not drawn) [Example 8, [2-Chloro-4-fluoro-5-(7-morpholin-4-yl-quinazolin-4-yl)phenyl]-(6-chloro-4-methoxy-pyridazin-3-yl)methanol]	–	–	–	IC50 (DNA-PK; enzymatic, 5 μM ATP): 0.007 to 0.03 µM; IC50 [1, 2]: 0.5 to 5 µM; Ki (Kv11.1 (hERG); [3]): 10 to 15 µM
Cc1nccnc1[C@@H](O)c1ccc(F)c(-c2ncnc3cc(N4CCOCC4)ccc23)c1 [Example 82]	–	–	–	IC50 (DNA-PK; enzymatic, 5 μM ATP): 0.007 to 0.03 µM; IC50 [1, 2]: 0.5 to 5 µM; Ki (Kv11.1 (hERG); [7]): > 25 µM
COc1ccc(C(C)(O)c2cc(-c3ncnc4cc(N5CCOCC5)ccc34)c(F)cc2Cl)nn1 (stereo not drawn) [Example 125, 1-[2-Chloro-4-fluoro-5-(7-morpholin-4-yl-quinazolin-4-yl)-phenyl]-1-(6-methoxy-pyridazin-3-yl)-ethanol]	–	–	–	IC50 (DNA-PK; enzymatic, 5 μM ATP): 0.003 to 0.007 µM; IC50 [1, 2]: 10 to 30 µM; Ki (Kv11.1 (hERG); [3]): 15 to 25 µM
NC(=O)COc1ccc(C(O)c2cc(-c3ncnc4cc(N5CCOCC5)ccc34)c(F)cc2Cl)nn1 (stereo not drawn) [Example 111, 2-(6-{[2-Chloro-4-fluoro-5-(7-morpholin-4-yl-quinazolin-4-yl)-phenyl]hydroxy-methyl}pyridazin-3-yloxy)acetamide]	–	–	–	IC50 (DNA-PK; enzymatic, 5 μM ATP): 0.003 to 0.007 µM; IC50 [1, 2]: 5 to 10 µM; Ki (Kv11.1 (hERG); [7]): > 25 µM
Cc1nc(C(O)c2cc(-c3ncnc4cc(N5CCOCC5)ccc34)cnc2F)sc1C (stereo not drawn) [Example 205, (4,5-Dimethyl-thiazol-2-yl)-[2-fluoro-5-(7-morpholin-4-yl-quinazolin-4-yl)-pyridin-3-yl]-methanol]	–	–	–	IC50 (DNA-PK; Table 5): 0.007 to 0.03 µM; IC50 ([1]; Table 5, HCT116 cells): 10 to 30 µM; Ki (Kv11.1 (hERG); Ki [Kv1.11 hERG], Table 5): 10 to 15 µM

More lines, main results first:

IC50 (DNA-PK; biochemical DNA-PK assay)	IC50 [1, 4]	Compound	Ki (Kv11.1 (hERG); [5])	further results
0.007 to 0.03 µM	10 to 30 µM	COc1ccc(C(C(N)=O)c2cc(-c3ncnc4cc(N5CCOCC5)ccc34)c(F)cc2F)nn1 (stereo not drawn) [Example 306, 2-[2,4-Difluoro-5-(7-morpholin-4-yl-quinazolin-4-yl)-phenyl]-2-(6-methoxy-pyridazin-3-yl)acetamide]	–	Ki (Kv11.1 (hERG); [6]): > 25 µM
0.007 to 0.03 µM	0.5 to 5 µM	OC(c1ccc(F)c(-c2ncnc3cc(N4CCOCC4)ccc23)c1)c1ncccc1Cl (stereo not drawn) [Example 466, (3-Chloro-pyridin-2-yl)-[4-fluoro-3-(7-morpholin-4-yl-quinazolin-4-yl)-phenyl]methanol]	–	Ki (Kv11.1 (hERG); [6]): 15 to 25 µM
0.007 to 0.03 µM	10 to 30 µM	NC(=O)C(c1cncc(Cl)c1)c1ccc(F)c(-c2ncnc3cc(N4CCOCC4)ccc23)c1 (stereo not drawn) [Example 297, 2-(5-Chloro-pyridin-3-yl)-2-[4-fluoro-3-(7-morpholin-4-yl-quinazolin-4-yl)-phenyl]acetamide]	10 to 15 µM	–
0.003 to 0.007 µM	0.5 to 5 µM	OC(c1cc(-c2ncnc3cc(N4CCOCC4)ccc23)ccc1Cl)c1ncnc2occc12 (stereo not drawn) [Example 416, [2-Chloro-5-(7-morpholin-4-yl-quinazolin-4-yl)-phenyl]furo[2,3-d}-pyrimidin-4-yl-methanol]	10 to 15 µM	–
< 0.003 µM	< 0.5 µM	OC(c1ccc(F)c(-c2ncnc3cc(N4CCOCC4)ccc23)c1)c1ncccc1OC(F)(F)F (stereo not drawn) [Example 475, [4-Fluoro-3-(7-morpholin-4-yl-quinazolin-4-yl)-phenyl]-(3-trifluoro-methoxypyridin-2-yl)-methanol]	15 to 25 µM	–
0.007 to 0.03 µM	5 to 10 µM	OC(c1cc(-c2ncnc3cc(N4CCOCC4)ccc23)c(F)cc1Cl)c1nccn2ccnc12 (single isomer, unassigned) [Example 395, [2-Chloro-4-fluoro-5-(7-morpholin-4-yl-quinazolin-4-yl)-phenyl)imidazo-[1,2-a]pyrazin-8-yl-methanol]	–	Ki (Kv11.1 (hERG); human, HEK293 cells stably transfected with the hERG gene, Ki [Kv1.11 hERG], hERG patch clamp assay (cells without asterisk)): 15 to 25 µM
< 0.003 µM	< 0.5 µM	OC(c1ccc(F)c(-c2ncnc3cc(N4CCOCC4)ccc23)c1)c1ncnc2occc12 (stereo not drawn) [Example 434, [4-Fluoro-3-(7-morpholin-4-yl-quinazolin-4-yl)-phenyl]furo[2,3-d}-pyrimidin-4-yl-methanol]	–	Ki (Kv11.1 (hERG); [6]): > 25 µM
< 0.003 µM	< 0.5 µM	COc1nccnc1C(O)c1cc(-c2ncnc3cc(N4CCOCC4)ccc23)c(F)cc1Cl (stereo not drawn) [Example 468, [2-Chloro-4-fluoro-5-(7-morpholin-4-yl-quinazolin-4-yl)-phenyl]-(3-methoxy-pyrazin-2-yl)-methanol]	15 to 25 µM	–
0.003 to 0.007 µM	5 to 10 µM	Cc1nccnc1C(O)c1cc(-c2ncnc3cc(N4CCOCC4)ccc23)ccc1F (stereo not drawn) [Example 393, [2-Fluoro-5-(7-morpholin-4-yl-quinazolin-4-yl)-phenyl]-(3-methyl-pyrazin-2-yl)-methanol]	15 to 25 µM	–
0.007 to 0.03 µM	10 to 30 µM	Cn1cnc2ncnc([C@H](O)c3cc(-c4ncnc5cc(N6CCOCC6)ccc45)c(F)cc3F)c21 [Example 384, (R)-[2,4-Difluoro-5-(7-morpholin-4-yl-quinazolin-4-yl)-phenyl]-(7-methyl-7H-purin-6-yl)-methanol]	–	Ki (Kv11.1 (hERG); [6]): > 25 µM
< 0.003 µM	0.5 to 5 µM	NC(=O)C(c1cc(-c2ncnc3cc(N4CCOCC4)ccc23)c(F)cc1F)c1nccn2cccc12 (stereo not drawn) [Example 348, 2-[2,4-Difluoro-5-(7-morpholin-4-yl-quinazolin-4-yl)-phenyl]-2-pyrrolo-[1,2-a]pyrazin-1-yl-acetamide]	10 to 15 µM	–
0.003 to 0.007 µM	0.5 to 5 µM	OC(c1cc(-c2ncnc3cc(N4CCOCC4)ccc23)ccc1Cl)c1ncncc1F (stereo not drawn) [Example 390, [2-Chloro-5-(7-morpholin-4-yl-quinazolin-4-yl)-phenyl]-(5-fluoro-pyrimidin-4-yl)-methanol]	15 to 25 µM	–
0.007 to 0.03 µM	< 0.5 µM	Cc1nccnc1C(O)c1cc(-c2ncnc3cc(N4CCOCC4)ccc23)ccc1Cl (stereo not drawn) [Example 428, [2-Chloro-5-(7-morpholin-4-yl-quinazolin-4-yl)-phenyl]-(3-methyl-pyrazin-2-yl)-methanol]	10 to 15 µM	–
